Measured values published in ChEMBL document CHEMBL2203277, “Synthesis and antibacterial activity of novel modified 5-O-desosamine ketolides” (2012).
Converted amounts (≈) assume the structure as drawn.

Experiments:
Format in all cases: functional
Streptococcus pneumoniae [1] = assay: Antibacterial activity against erythromycin-resistant Streptococcus pneumoniae 09D016 by broth microdilution method
Staphylococcus aureus [2] = assay: Antibacterial activity against methicillin-sensitive Staphylococcus aureus 09O077 by broth microdilution method
[3] = tested on: Staphylococcus epidermidis; assay: Antibacterial activity against methicillin-resistant Staphylococcus epidermidis 09M124 by broth microdilution method
[4] = tested on: Staphylococcus epidermidis; assay: Antibacterial activity against methicillin-sensitive Staphylococcus epidermidis 09G291 by broth microdilution method
Staphylococcus aureus [5] = assay: Antibacterial activity against methicillin-sensitive Staphylococcus aureus 09U035 by broth microdilution method
Streptococcus pneumoniae [6] = assay: Antibacterial activity against erythromycin-sensitive Streptococcus pneumoniae ATCC 49619 by broth microdilution method
[7] = tested on: Staphylococcus epidermidis; assay: Antibacterial activity against methicillin-sensitive Staphylococcus epidermidis 09A011 by broth microdilution method
Streptococcus pyogenes [8] = assay: Antibacterial activity against erythromycin-resistant Streptococcus pyogenes 09Q149 by broth microdilution method
Streptococcus pneumoniae [9] = assay: Antibacterial activity against erythromycin-sensitive Streptococcus pneumoniae 09H065 by broth microdilution method
Staphylococcus aureus [10] = assay: Antibacterial activity against methicillin-resistant Staphylococcus aureus 09N120 by broth microdilution method
Streptococcus pneumoniae [11] = assay: Antibacterial activity against erythromycin-sensitive Streptococcus pneumoniae 09H071 by broth microdilution method
Streptococcus pneumoniae [12] = assay: Antibacterial activity against erythromycin-resistant Streptococcus pneumoniae 09E427 by broth microdilution method
[13] = tested on: Staphylococcus epidermidis; assay: Antibacterial activity against methicillin-resistant Staphylococcus epidermidis 09R476 by broth microdilution method
Streptococcus pyogenes [14] = assay: Antibacterial activity against erythromycin-sensitive Streptococcus pyogenes 09U070 by broth microdilution method
Staphylococcus aureus [15] = assay: Antibacterial activity against methicillin-resistant Staphylococcus aureus 09L075 by broth microdilution method
Staphylococcus aureus [16] = assay: Antibacterial activity against methicillin-sensitive Staphylococcus aureus ATCC 29213 by broth microdilution method

**Q.** Which MIC (Streptococcus pneumoniae [1]) does the source give for `CC[C@H]1OC(=O)[C@H](C)C(=O)[C@H](C)[C@@H](O[C@@H]2O[C@H](C)[C@@H](OCc3ccccc3)[C@H](N(C)C)[C@H]2O)[C@](C)(OC)C[C@@H](C)C(=O)[C@H](C)[C@@H]2OC(=O)O[C@]12C` here?
**A.** > 32 µg/mL

**Q.** And the MIC (Staphylococcus aureus [2])?
**A.** > 32 µg/mL

**Q.** What about the MIC [3] of the same compound?
**A.** 32 µg/mL (≈ 44.5 µM)

**Q.** What about the MIC [4] of the same compound?
**A.** > 32 µg/mL

**Q.** What about the MIC (Staphylococcus aureus [5]) of the same compound?
**A.** > 32 µg/mL

**Q.** And the MIC (Streptococcus pneumoniae [6])?
**A.** 4 µg/mL (≈ 5.56 µM)

**Q.** What about the MIC [7] of the same compound?
**A.** 16 µg/mL (≈ 22.2 µM)

**Q.** What about the MIC (Streptococcus pyogenes [8]) of the same compound?
**A.** > 32 µg/mL

**Q.** And the MIC (Streptococcus pneumoniae [9])?
**A.** 4 µg/mL (≈ 5.56 µM)

**Q.** And the MIC (Staphylococcus aureus [10])?
**A.** > 32 µg/mL

**Q.** What about the MIC (Streptococcus pneumoniae [11]) of the same compound?
**A.** 4 µg/mL (≈ 5.56 µM)

**Q.** And the MIC (Streptococcus pneumoniae [12])?
**A.** > 32 µg/mL

**Q.** And the MIC [13]?
**A.** 32 µg/mL (≈ 44.5 µM)

**Q.** What about the MIC (Streptococcus pyogenes [14]) of the same compound?
**A.** > 32 µg/mL

**Q.** And the MIC (Staphylococcus aureus [15])?
**A.** > 32 µg/mL

**Q.** And the MIC (Staphylococcus aureus [16])?
**A.** 32 µg/mL (≈ 44.5 µM)

**Q.** What does the source list for `CC[C@H]1OC(=O)[C@H](C)C(=O)[C@H](C)[C@@H](O[C@@H]2O[C@H](C)[C@@H](O)[C@H](N(C)C)[C@H]2O)[C@](C)(OC)C[C@@H](C)C(=O)[C@H](C)[C@@H]2OC(=O)O[C@]12C`?
**A.** MIC (Streptococcus pneumoniae [1]): > 32 µg/mL; MIC (Staphylococcus aureus [2]): > 32 µg/mL; MIC [3]: 0.25 µg/mL (≈ 0.397 µM); MIC [4]: > 32 µg/mL; MIC (Staphylococcus aureus [5]): > 32 µg/mL; MIC (Streptococcus pneumoniae [6]): 0.062 µg/mL (≈ 0.0985 µM); MIC [7]: 0.125 µg/mL (≈ 0.198 µM); MIC (Streptococcus pyogenes [8]): > 32 µg/mL; MIC (Streptococcus pneumoniae [9]): 0.062 µg/mL (≈ 0.0985 µM); MIC (Staphylococcus aureus [10]): > 32 µg/mL; MIC (Streptococcus pneumoniae [11]): ≤ 0.031 µg/mL; MIC (Streptococcus pneumoniae [12]): > 32 µg/mL; MIC [13]: 0.25 µg/mL (≈ 0.397 µM); MIC (Streptococcus pyogenes [14]): ≤ 0.031 µg/mL; MIC (Staphylococcus aureus [15]): 0.125 µg/mL (≈ 0.198 µM); MIC (Staphylococcus aureus [16]): 0.125 µg/mL (≈ 0.198 µM)

**Q.** What does the source list for `C=CCO[C@H]1[C@H](N(C)C)[C@@H](O)[C@H](O[C@@H]2[C@@H](C)C(=O)[C@@H](C)C(=O)O[C@H](CC)[C@@]3(C)OC(=O)O[C@H]3[C@@H](C)C(=O)[C@H](C)C[C@@]2(C)OC)O[C@@H]1C`?
**A.** MIC (Streptococcus pneumoniae [1]): > 8 µg/mL; MIC (Staphylococcus aureus [2]): > 8 µg/mL; MIC [3]: 4 µg/mL (≈ 5.97 µM); MIC [4]: > 8 µg/mL; MIC (Staphylococcus aureus [5]): > 8 µg/mL; MIC (Streptococcus pneumoniae [6]): 0.5 µg/mL (≈ 0.746 µM); MIC [7]: 2 µg/mL (≈ 2.99 µM); MIC (Streptococcus pyogenes [8]): > 8 µg/mL; MIC (Streptococcus pneumoniae [9]): 0.5 µg/mL (≈ 0.746 µM); MIC (Staphylococcus aureus [10]): > 8 µg/mL; MIC (Streptococcus pneumoniae [11]): 1 µg/mL (≈ 1.49 µM); MIC (Streptococcus pneumoniae [12]): > 8 µg/mL; MIC [13]: 4 µg/mL (≈ 5.97 µM); MIC (Streptococcus pyogenes [14]): > 8 µg/mL; MIC (Staphylococcus aureus [15]): 8 µg/mL (≈ 11.9 µM); MIC (Staphylococcus aureus [16]): 4 µg/mL (≈ 5.97 µM)

**Q.** Which MIC (Streptococcus pneumoniae [1]) does the source give for `CC[C@H]1OC(=O)[C@H](C)[C@@H](O[C@H]2C[C@@](C)(OC)[C@@H](O)[C@H](C)O2)[C@H](C)[C@@H](O[C@@H]2O[C@H](C)C[C@H](N(C)C)[C@H]2O)[C@](C)(OC)C[C@@H](C)C(=O)[C@H](C)[C@@H](O)[C@]1(C)O` [CLARITHROMYCIN] here?
**A.** > 32 µg/mL

**Q.** And the MIC (Staphylococcus aureus [2])?
**A.** > 32 µg/mL

**Q.** What about the MIC [3] of the same compound?
**A.** 32 µg/mL (≈ 42.8 µM)

**Q.** What about the MIC [4] of the same compound?
**A.** > 32 µg/mL

**Q.** And the MIC (Staphylococcus aureus [5])?
**A.** > 32 µg/mL

**Q.** And the MIC (Streptococcus pneumoniae [6])?
**A.** 0.125 µg/mL (≈ 0.167 µM)

**Q.** And the MIC [7]?
**A.** 0.125 µg/mL (≈ 0.167 µM)

**Q.** And the MIC (Streptococcus pyogenes [8])?
**A.** > 32 µg/mL

**Q.** And the MIC (Streptococcus pneumoniae [9])?
**A.** 0.062 µg/mL (≈ 0.0829 µM)

**Q.** And the MIC (Staphylococcus aureus [10])?
**A.** > 32 µg/mL

**Q.** And the MIC (Streptococcus pneumoniae [11])?
**A.** 0.062 µg/mL (≈ 0.0829 µM)

**Q.** What about the MIC (Streptococcus pneumoniae [12]) of the same compound?
**A.** > 32 µg/mL

**Q.** What about the MIC [13] of the same compound?
**A.** 0.25 µg/mL (≈ 0.334 µM)

**Q.** And the MIC (Streptococcus pyogenes [14])?
**A.** 0.031 µg/mL (≈ 0.0414 µM)

**Q.** And the MIC (Staphylococcus aureus [15])?
**A.** 2 µg/mL (≈ 2.67 µM)

**Q.** And the MIC (Staphylococcus aureus [16])?
**A.** 0.25 µg/mL (≈ 0.334 µM)

**Q.** How did the MIC (Streptococcus pneumoniae [1]) turn out when `CC[C@H]1OC(=O)[C@H](C)[C@@H](O[C@H]2C[C@@](C)(OC)[C@@H](O)[C@H](C)O2)[C@H](C)[C@@H](O[C@@H]2O[C@H](C)C[C@H](N(C)C)[C@H]2O)[C@](C)(O)C[C@@H](C)C(=O)[C@H](C)[C@@H](O)[C@]1(C)O` [ERYTHROMYCIN] was run?
**A.** > 256 µg/mL

**Q.** What about the MIC (Staphylococcus aureus [2]) of the same compound?
**A.** > 256 µg/mL

**Q.** And the MIC [3]?
**A.** 128 µg/mL (≈ 174 µM)

**Q.** And the MIC [4]?
**A.** > 256 µg/mL

**Q.** What about the MIC (Staphylococcus aureus [5]) of the same compound?
**A.** > 256 µg/mL

**Q.** What about the MIC (Streptococcus pneumoniae [6]) of the same compound?
**A.** 0.062 µg/mL (≈ 0.0845 µM)

**Q.** What about the MIC [7] of the same compound?
**A.** 0.062 µg/mL (≈ 0.0845 µM)

**Q.** And the MIC (Streptococcus pyogenes [8])?
**A.** > 256 µg/mL

**Q.** And the MIC (Streptococcus pneumoniae [9])?
**A.** 0.062 µg/mL (≈ 0.0845 µM)

**Q.** And the MIC (Staphylococcus aureus [10])?
**A.** > 256 µg/mL

**Q.** What about the MIC (Streptococcus pneumoniae [11]) of the same compound?
**A.** 0.062 µg/mL (≈ 0.0845 µM)

**Q.** And the MIC (Streptococcus pneumoniae [12])?
**A.** > 256 µg/mL

**Q.** What about the MIC [13] of the same compound?
**A.** 0.125 µg/mL (≈ 0.17 µM)

**Q.** What about the MIC (Streptococcus pyogenes [14]) of the same compound?
**A.** 0.031 µg/mL (≈ 0.0422 µM)

**Q.** What about the MIC (Staphylococcus aureus [15]) of the same compound?
**A.** 0.5 µg/mL (≈ 0.681 µM)

**Q.** And the MIC (Staphylococcus aureus [16])?
**A.** 0.25 µg/mL (≈ 0.341 µM)

**Q.** For `CC[C@H]1OC(=O)[C@H](C)C(=O)[C@H](C)[C@@H](O[C@@H]2O[C@H](C)C[C@H](N(C)C)[C@H]2O)[C@](C)(OC)C[C@@H](C)C(=O)[C@H](C)[C@H]2N(CCCCn3cnc(-c4cccnc4)c3)C(=O)O[C@]12C` [TELITHROMYCIN], which MIC (Streptococcus pneumoniae [1]) is on record?
**A.** 0.125 µg/mL (≈ 0.154 µM)

**Q.** And the MIC (Staphylococcus aureus [2])?
**A.** > 64 µg/mL

**Q.** What about the MIC [3] of the same compound?
**A.** 0.25 µg/mL (≈ 0.308 µM)

**Q.** And the MIC [4]?
**A.** > 64 µg/mL

**Q.** What about the MIC (Staphylococcus aureus [5]) of the same compound?
**A.** > 64 µg/mL

**Q.** And the MIC (Streptococcus pneumoniae [6])?
**A.** 0.031 µg/mL (≈ 0.0382 µM)

**Q.** And the MIC [7]?
**A.** 0.125 µg/mL (≈ 0.154 µM)

**Q.** And the MIC (Streptococcus pyogenes [8])?
**A.** 2 µg/mL (≈ 2.46 µM)

**Q.** What about the MIC (Streptococcus pneumoniae [9]) of the same compound?
**A.** 0.031 µg/mL (≈ 0.0382 µM)

**Q.** And the MIC (Staphylococcus aureus [10])?
**A.** > 64 µg/mL

**Q.** What about the MIC (Streptococcus pneumoniae [11]) of the same compound?
**A.** 0.031 µg/mL (≈ 0.0382 µM)

**Q.** And the MIC (Streptococcus pneumoniae [12])?
**A.** 0.25 µg/mL (≈ 0.308 µM)

**Q.** What about the MIC [13] of the same compound?
**A.** 0.125 µg/mL (≈ 0.154 µM)

**Q.** What about the MIC (Streptococcus pyogenes [14]) of the same compound?
**A.** 0.016 µg/mL (≈ 0.0197 µM)

**Q.** What about the MIC (Staphylococcus aureus [15]) of the same compound?
**A.** 0.125 µg/mL (≈ 0.154 µM)

**Q.** And the MIC (Staphylococcus aureus [16])?
**A.** 0.125 µg/mL (≈ 0.154 µM)
